Consider 10 molecules from PubChem BioAssay (NCI).

Each structure is given as a SMILES string. Where “and” joins values, the source holds several entries; their conditions need not be identical. Equal entries are not always repeated.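 Exposure lasted 48 hours, with cells grown in 96-well plates and compounds tested at five concentrations. GI50 is the concentration that inhibits growth by half. At the TGI there is no net growth.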 Some results are limits rather than exact numbers.

Among the test systems are K-562 leukemia; OVCAR-4 ovarian; UACC-62 melanoma; CAKI-1 renal; SNB-75 CNS; SK-MEL-28 melanoma; UACC-257 melanoma; SK-MEL-2 melanoma; SN12C renal; UO-31 renal.
Holding throughout (assay): NCI anticancer screen, dose series, 48 h

For `CC1=C(C(=O)NCc2ccccc2)C(c2ccc([N+](=O)[O-])cc2)C(C(=O)NCc2ccccc2)=C(C)N1`, the TGI in the experiment on K-562 leukemia was above 100 µM; in the experiment with OVCAR-4 ovarian it was 47.9 µM; in the experiment with UACC-62 melanoma it was 64.6 µM; in the experiment on CAKI-1 renal, above 100 µM; in the experiment on SNB-75 CNS it was above 100 µM; in the experiment on SK-MEL-28 melanoma, above 100 µM. Also, the TGI in the experiment on UACC-257 melanoma, in the experiment with SK-MEL-2 melanoma, with SN12C renal and in the experiment on UO-31 renal was above 100 µM throughout.
In the case of `O=C1c2ccccc2NC1(c1ccccc1)c1c(-c2ccccc2)[nH]c2ccccc12` (stereo unspecified), the TGI with K-562 leukemia, in the experiment with OVCAR-4 ovarian, with UACC-62 melanoma, in the experiment with CAKI-1 renal, with SNB-75 CNS and with SK-MEL-28 melanoma was above 100 µM throughout. Further, the TGI in the experiment on UACC-257 melanoma, in the experiment on SK-MEL-2 melanoma, in the experiment on SN12C renal and in the experiment on UO-31 renal was above 100 µM in each case.
As to `COc1cc2c(cc1OC)C(OC)N(C)c1c-2ccc2cc3c(cc12)OCO3` (stereo unspecified), the TGI in the experiment with K-562 leukemia worked out at 33.2 µM; with OVCAR-4 ovarian, 26 µM; in the experiment on UACC-62 melanoma, 3.08 µM; with CAKI-1 renal, 33 µM; with SNB-75 CNS it was 5.53 µM; in the experiment on SK-MEL-28 melanoma it was 33.5 µM. The TGI in the experiment on UACC-257 melanoma came out at 50.2 µM; in the experiment on SK-MEL-2 melanoma, 5.02 µM; in the experiment with SN12C renal, 21.1 µM; with UO-31 renal, 74.7 µM.
For the molecule `Cc1nc([C@H]2CC[C@H]3[C@@H]4CCC5=CC(=O)CC[C@]5(C)[C@H]4CC[C@]23C)cs1`, the GI50 in the experiment with K-562 leukemia was 4.7 µM; in the experiment with OVCAR-4 ovarian, 3.02 µM; in the experiment with UACC-62 melanoma, 4.1 µM; with CAKI-1 renal, 2.3 µM; in the experiment on SNB-75 CNS, above 27 µM; in the experiment with SK-MEL-28 melanoma it was above 100 µM. Also, the results for the GI50 with UACC-257 melanoma, in the experiment on SK-MEL-2 melanoma and with SN12C renal were 3.31 µM, above 100 µM and above 100 µM, respectively. The TGI in the experiment on K-562 leukemia, with OVCAR-4 ovarian, with UACC-62 melanoma, in the experiment on CAKI-1 renal, with SNB-75 CNS and in the experiment on SK-MEL-28 melanoma was above 100 µM in each case. Further, the TGI in the experiment with UACC-257 melanoma, in the experiment with SK-MEL-2 melanoma and with SN12C renal was above 100 µM in each case.
With `O=C(O)/C(Cl)=C(\Cl)C(=O)NC1C2CC3CC(C2)CC1C3` (stereo unspecified), the TGI in the experiment on K-562 leukemia, with OVCAR-4 ovarian, in the experiment with UACC-62 melanoma, with CAKI-1 renal, with SNB-75 CNS and with SK-MEL-28 melanoma was above 100 µM each time. Besides, the TGI in the experiment with UACC-257 melanoma, in the experiment on SN12C renal and in the experiment on UO-31 renal was above 100 µM each time.
Regarding `Clc1ccc(C2=Nn3c(nnc3-c3cc(Cl)cc(Cl)c3Cl)SC2)cc1`, the GI50 in the experiment on K-562 leukemia is 3.4 µM; with OVCAR-4 ovarian it was above 100 µM; in the experiment on UACC-62 melanoma, 21.6 µM; in the experiment on CAKI-1 renal, 14.6 µM; with SNB-75 CNS it was 14.8 µM; in the experiment with SK-MEL-28 melanoma, above 100 µM. Further, the GI50 with UACC-257 melanoma is 33.2 µM; in the experiment on SK-MEL-2 melanoma it was 41.7 µM; with SN12C renal it was 75 µM. The TGI was 35.1 µM in the experiment with K-562 leukemia; above 100 µM in the experiment with OVCAR-4 ovarian; 70.9 µM in the experiment on UACC-62 melanoma; 31.3 µM with CAKI-1 renal; 34.2 µM in the experiment with SNB-75 CNS; above 100 µM in the experiment on SK-MEL-28 melanoma. Moreover, the TGI with UACC-257 melanoma, in the experiment with SK-MEL-2 melanoma and with SN12C renal was above 100 µM each time.
For `Cc1cc(Nc2c3ccccc3nc3ccccc23)ccc1NS(C)(=O)=O`, the GI50 is 3.59 µM with K-562 leukemia; 5.03 µM with OVCAR-4 ovarian; 3.36 µM in the experiment on CAKI-1 renal; 5.11 µM in the experiment on SNB-75 CNS; 5.4 µM with SK-MEL-28 melanoma; 2.41 µM with UACC-257 melanoma. The GI50 is 3.42 µM with SK-MEL-2 melanoma, 3.78 µM in the experiment on SN12C renal and 1.9 µM in the experiment with UO-31 renal. For the same molecule, the TGI in the experiment with K-562 leukemia came to 14.5 µM; in the experiment on OVCAR-4 ovarian, 46.5 µM; in the experiment with CAKI-1 renal, 15.6 µM; in the experiment on SNB-75 CNS it was 19.9 µM; in the experiment with SK-MEL-28 melanoma, 19.5 µM; with UACC-257 melanoma, 9.58 µM. The values for the TGI in the experiment with SK-MEL-2 melanoma, in the experiment with SN12C renal and in the experiment with UO-31 renal were 10.6 µM, 20.8 µM and 8.76 µM, respectively.
Consider `COc1cc(Nc2ncc(F)c(Nc3ccc4c(n3)NC(=O)C(C)(C)O4)n2)cc(OC)c1OC`, for which the GI50 with K-562 leukemia is above 100 µM; in the experiment with OVCAR-4 ovarian it was above 100 µM; with CAKI-1 renal it was 0.618 µM; in the experiment on SNB-75 CNS it was 0.385 µM; in the experiment with SK-MEL-28 melanoma, above 100 µM; with UACC-257 melanoma, above 10 µM. The GI50 was above 100 µM in the experiment on SK-MEL-2 melanoma; 0.667 µM and 2.86 µM in the experiment on SN12C renal; 0.679 µM with UO-31 renal. Also, the TGI was above 100 µM in the experiment with K-562 leukemia; above 100 µM with OVCAR-4 ovarian; above 10 µM in the experiment on CAKI-1 renal; above 10 µM with SNB-75 CNS; above 100 µM in the experiment with SK-MEL-28 melanoma; above 10 µM in the experiment with UACC-257 melanoma. Moreover, the TGI is above 100 µM in the experiment with SK-MEL-2 melanoma, above 100 µM with SN12C renal and above 10 µM in the experiment on UO-31 renal.
Regarding `COC1=CC23CCCN2CCc2cc4c(cc2C3C1O)OCO4` (stereo unspecified), the TGI with OVCAR-4 ovarian was above 100 µM; in the experiment on UACC-62 melanoma it was above 100 µM; in the experiment with CAKI-1 renal, 92 µM; in the experiment with SNB-75 CNS, above 100 µM; in the experiment with SK-MEL-28 melanoma, above 100 µM; in the experiment with UACC-257 melanoma it was above 100 µM. The TGI in the experiment with SK-MEL-2 melanoma, in the experiment with SN12C renal and in the experiment with UO-31 renal was above 100 µM throughout.
As to `CCCCCCCCCCCCCCCC[N+](C)(CCO)Cc1cnc[nH]1` (stereo unspecified), the GI50 in the experiment with K-562 leukemia was 1.57 µM; in the experiment with OVCAR-4 ovarian it was 0.978 µM; in the experiment with CAKI-1 renal, 0.622 µM; in the experiment with SNB-75 CNS, 1.11 µM; in the experiment with SK-MEL-28 melanoma, 2.7 µM; with UACC-257 melanoma, 4.08 µM. The results for the GI50 with SN12C renal and with UO-31 renal were 1.45 µM and 23 µM, respectively. For the same molecule, the TGI in the experiment on K-562 leukemia is above 100 µM; in the experiment on OVCAR-4 ovarian, 56.4 µM; with CAKI-1 renal, 4.47 µM; in the experiment on SNB-75 CNS it was 5.86 µM; in the experiment on SK-MEL-28 melanoma, 9.78 µM; with UACC-257 melanoma, 72.7 µM. For the same molecule, the results for the TGI in the experiment with SN12C renal and in the experiment with UO-31 renal were 6.31 µM and above 100 µM, respectively.
